Measured values as given in publication PMC6316600, “Analgesic Activity of Acid-Sensing Ion Channel 3 (ASIС3) Inhibitors: Sea Anemones Peptides Ugr9-1 and APETx2 versus Low Molecular Weight Compounds” (Marine Drugs, 2018).
“Also recorded” adds a separate entry of the source. Bridge positions count the residues as written; N and C are the ends. Peptide text beside a SMILES is read from it.

Legend:
human ASIC3 [1] = molecular target: T1, human ASIC3 (Homo sapiens, UniProt Q9UHC3); test: Inhibition of transient hASIC3 current, two-electrode voltage clamp, Xenopus laevis oocytes; type: cell-based
T1 construct: host or cells: Xenopus laevis oocytes (cRNA injection)
T1 sequence (Q9UHC3 1-531): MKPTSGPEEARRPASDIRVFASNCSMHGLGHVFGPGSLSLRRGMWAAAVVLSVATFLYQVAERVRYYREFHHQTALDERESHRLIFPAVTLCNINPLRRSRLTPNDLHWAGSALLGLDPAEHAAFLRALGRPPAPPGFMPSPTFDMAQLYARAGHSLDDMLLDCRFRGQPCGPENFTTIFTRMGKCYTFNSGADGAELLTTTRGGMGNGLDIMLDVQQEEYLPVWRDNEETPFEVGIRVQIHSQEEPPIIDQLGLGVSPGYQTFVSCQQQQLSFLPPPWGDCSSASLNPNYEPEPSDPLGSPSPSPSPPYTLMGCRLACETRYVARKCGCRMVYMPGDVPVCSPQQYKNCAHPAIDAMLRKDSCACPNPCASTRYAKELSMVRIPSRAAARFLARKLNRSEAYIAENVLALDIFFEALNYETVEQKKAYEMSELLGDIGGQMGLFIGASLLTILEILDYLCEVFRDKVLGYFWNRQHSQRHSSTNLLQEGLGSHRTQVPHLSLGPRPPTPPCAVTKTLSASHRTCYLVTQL
Protocol: The activity of ligands was checked on human ASIC3 (hASIC3) channels expressed in Xenopus laevis oocytes. […] Two different protocols were used to reveal the effects of ligands on sustained and transient components of acid-induced hASIC3 currents. The influence of the compounds on the transient current amplitude was estimated after preincubation for 15 s before the activation in a low alkali bath solution (pH 7.8), which ensured an absence of steady-state desensitization for the transient current (Figure 1A). The compounds’ inhibition effectiveness was calculated using the value of maximal amplitudes. […] The inhibitory effect was concentration-dependent and fit well using a logistic equation.
(§1) Figure 1 Comparison of ligands’ antagonistic effects on hASIC3 channels. Whole-cell currents were induced by pH drops and recorded at the holding potential −50 mV. (A) Effect of ligands on the transient component of current at conditioning pH 7.8. The control trace is shown first; (B) Effect of ligands on the sustained component at conditioning pH 7.3. The black line is the control trace, and the red line is the trace of activation in the presence of a ligand. Dose-response curves for transient (C) and sustained (D) currents’ inhibitions are shown. Data are shown as mean ± SEM (n = 4–6) and fitted with the logistic equation (solid lines).
X. laevis oocytes were removed surgically and defolliculated by collagenase (Sigma-Aldrich, Moscow, Russia). Oocytes were injected with 2.5 to 10 ng of human ASIC3 cRNA (AF057711.1). The cRNA transcripts were synthesised from a NaeI-linearized ASIC3 cDNA template (pcDNA3.1+humanASIC3 subcloned from clone EX-Q0260- B02 (GeneCopoeia, Inc., Rockville, MD USA) using a HiScribe T7 High Yield RNA Synthesis Kit (New England Biolabs, Ipswich, MA, USA) according to the manufacturer’s protocol for capped transcripts. After the injection, oocytes were kept for 3 to 6 days at 19° in a ND-96 medium containing (in mM) 96 NaCl, 2 KCl, 1.8 CaCl2, 1 MgCl2, and 5 HEPES titrated to pH 7.4 with NaOH supplemented with gentamycin (50 µg/mL). Two-electrode voltage clamp recordings were performed using a GeneClamp 500 amplifier (Axon Instruments, Union City, CA, USA), and the data were filtered at 20 Hz and digitized at 100 Hz by an AD converter L780 (LCard, Moscow, Russia) using in-house software. To induce transient and/or sustained currents, two different protocols with different conditioning pH were used. Microelectrodes were filled with a 3 M KCl solution. The working buffer solution was ND-96 titrated by NaOH to pH 7.8 or 7.3. The solution for the pH shift was constructed based on the ND-96 solution, in which 5 mM HEPES was replaced with 10 mM acetic acid (pH 4.0) or 10 mM MES (pH 5.5) in a supplementary 0.1% BSA solution. The duration of the activation pulses was 3.5 s.
(§2) The analysis of the electrophysiological data was performed using the OriginPro 8.6 programme.

acetic acid writhing = conditions: cited from earlier work
Protocol: ASIC3 channels play an important role in the perception and maintenance of pain signals in peripheral neurons. Several ligands with inhibitory properties were found for this receptor, each of which was able to induce analgesia in animal tests. The most well-known inhibitor APETx2 in various studies has been tested on models of acid-induced muscle pain model, CFA-induced inflammatory pain model (at doses of 0.07, 0.22 and 2.2 µM). Ugr9-1 was studied in models of CFA-induced thermal hyperalgesia and acetic acid writhing test (at doses of 0.5, 0.1, and 0.01 mg/kg). […] The nonspecific actions on other cellular targets and the changes of ASIC3 involvement in the inflammatory process induced by the high antagonists’ concentration for 2 h are suspected. We conclude that the inhibition of both components of ASIC3 currents could be beneficial but could be reversed by hormesis in high doses and during a long exposure to ...

human ASIC3 [2] = molecular target: T1, human ASIC3; test: Inhibition of sustained hASIC3 current, two-electrode voltage clamp, Xenopus laevis oocytes; type: cell-based; conditions: for Hill coefficient, sustained currents / IC50: hASIC3 in X. laevis oocytes, mean ± SEM (n = 4–6); for IC50: compound applied with 3.5 s pH stimulus, holding -50 mV, logistic fit, read-out: IC50, sustained currents
Source text: as §1, with “Whole-cell” for “Figure 1 Comparison of ligands’ antagonistic effects on hASIC3 channels. Whole-cell”
The analysis of a sustained component of the current was carried out in a bath solution (pH 7.3) where the transient component of the current was completely desensitized by protons. The pH activation stimulus (3.5 s) was applied in the presence of the testing compound (Figure 1B).
X. laevis oocytes were removed surgically and defolliculated by collagenase (Sigma-Aldrich, Moscow, Russia). Oocytes were injected with 2.5 to 10 ng of human ASIC3 cRNA (AF057711.1). […] To induce transient and/or sustained currents, two different protocols with different conditioning pH were used. Microelectrodes were filled with a 3 M KCl solution. The working buffer solution was ND-96 titrated by NaOH to pH 7.8 or 7.3. The solution for the pH shift was constructed based on the ND-96 solution, in which 5 mM HEPES was replaced with 10 mM acetic acid (pH 4.0) or 10 mM MES (pH 5.5) in a supplementary 0.1% BSA solution. The duration of the activation pulses was 3.5 s.
as §2

[3] = hASIC3 in X. laevis oocytes, conditioning pH 7.8, mean ± SEM (n = 4–6)

Compound: CC[C@H](C)[C@H](N)C(=O)N[C@@H](CO)C(=O)N[C@H](C(=O)N[C@@H](CC(=O)O)C(=O)N1CCC[C@H]1C(=O)N1CCC[C@H]1C(=O)N[C@H]1CSSC[C@@H](C(=O)NCC(=O)N[C@@H](C)C(=O)N[C@H](C(=O)O)C(C)C)NC(=O)CNC(=O)[C@H](Cc2ccc(O)cc2)NC(=O)[C@H](C)NC(=O)[C@H](CC(=O)O)NC(=O)[C@H](Cc2ccc(O)cc2)NC(=O)[C@H](C(C)C)NC(=O)[C@@H]2CSSC[C@H](NC(=O)[C@H](Cc3ccccc3)NC(=O)[C@H](CCCNC(=N)N)NC1=O)C(=O)N[C@@H](Cc1ccc(O)cc1)C(=O)N[C@@H](Cc1c[nH]cn1)C(=O)N[C@@H](CCCNC(=N)N)C(=O)N[C@@H](CC(=O)O)C(=O)NCC(=O)N[C@@H](CO)C(=O)NCC(=O)N[C@@H](CC(N)=O)C(=O)N2)[C@@H](C)CC [Ugr9-1] (H-ISIDPPCRFCYHRDGSGNCVYDAYGCGAV-OH; disulfide 7-26, 10-19; N-terminus and C-terminus assumed)
- Rank of in vitro potency, transient component of hASIC3 current (human ASIC3 [1]): APETx2 > Ugr9-1 > sevanol
- Concentration needed to block transient current relative to APETx2 (human ASIC3 [1]; Ugr9-1 versus APETx2): 30 times
- Lower efficacy in inhibition of the transient component relative to APETx2 (human ASIC3 [1]; Ugr9-1 versus APETx2): 30 times
- Inhibition of transient current (in words) (human ASIC3 [1]; conditioning pH 7.8): completely blocked the transient current of ASIC3; also recorded: decreased transient and sustained components of the current
- Hill coefficient, transient currents (human ASIC3 [1]; [3]): 1.86 ± 0.16
- Efficacy in acetic acid writhing test (acetic acid writhing; intravenous, 30 min before testing): ~ 50%
- Rank of potency, sustained component inhibition (human ASIC3 [2]): Ugr9-1 > sevanol > diclofenac
- Inhibition of sustained current (in words) (human ASIC3 [2]; conditioning pH 7.3): decreased transient and sustained components of the current
- Hill coefficient, sustained currents (human ASIC3 [2]; conditioning pH 7.3): 1.74 ± 0.51
- inhibition at 50 µM (human ASIC3 [2]; pH 7.3, read-out: Inhibition of sustained current amplitude at saturation concentration): ~50%

Compound: O=C(O)Cc1ccccc1Nc1c(Cl)cccc1Cl [diclofenac, reference compound]
- Inhibition of transient current (in words) (human ASIC3 [1]; conditioning pH 7.8): not detected
- Effect on acetic acid-induced writhing (acetic acid writhing; 20 mg/kg i.p.): inhibited acetic acid-induced writhing
- Rank of potency, sustained component inhibition (human ASIC3 [2]): Ugr9-1 > sevanol > diclofenac
- inhibition at 3000 µM (human ASIC3 [2]; about 3 mM, conditioning pH 7.3, read-out: Inhibition of sustained current amplitude at saturation concentration): ~50%
- Inhibition of sustained current (in words) (human ASIC3 [2]; conditioning pH 7.3): significantly weaker in their inhibitory potency when compared to peptide toxin Ugr9-1
- IC50 (human ASIC3 [2]; conditioning pH 7.3): 856 ± 106 µM

Compound: O=C(O)C[C@H](C(=O)O)[C@@H](OC(=O)C1=Cc2cc(O)c(O)cc2[C@@H](c2ccc(O)c(O)c2)[C@@H]1C(=O)O[C@@H](C(=O)O)[C@H](CC(=O)O)C(=O)O)C(=O)O [sevanol]
- Rank of in vitro potency, transient component of hASIC3 current (human ASIC3 [1]): APETx2 > Ugr9-1 > sevanol
- Inhibition of transient current (in words) (human ASIC3 [1]; conditioning pH 7.8): had much less potency and inhibited transient currents in submillimolar concentrations; also recorded: complete inhibition was observed; also recorded: decreased transient and sustained components of the current
- IC50 (human ASIC3 [1]; hASIC3 in X. laevis oocytes, conditioning pH 7.8, 15 s preincubation, holding -50 mV, logistic fit, mean ± SEM (n = 4–6), read-out: IC50, transient currents): 331 ± 21 µM
- Hill coefficient, transient currents (human ASIC3 [1]; [3]): 1.98 ± 0.24
- Lower efficacy in vitro relative to APETx2 (human ASIC3 [1]; sevanol versus APETx2): 1000 fold
- Lower efficacy in vitro relative to Ugr9-1 (human ASIC3 [1]; sevanol versus Ugr9-1): 35 fold
- Rank of potency, sustained component inhibition (human ASIC3 [2]): Ugr9-1 > sevanol > diclofenac
- Inhibition of sustained current amplitude at saturation concentration (human ASIC3 [2]; about 3 mM, conditioning pH 7.3): approximately 50%
- Inhibition of sustained current (in words) (human ASIC3 [2]; conditioning pH 7.3): decreased transient and sustained components of the current
- Inhibition of sustained current (in words) (human ASIC3 [2]; conditioning pH 7.3, listed as Sevanol): significantly weaker in their inhibitory potency when compared to peptide toxin Ugr9-1
- IC50 (human ASIC3 [2]; conditioning pH 7.3): 259 ± 39 µM
- Hill coefficient, sustained currents (human ASIC3 [2]; conditioning pH 7.3): 2.4 ± 0.4
